Experimental data taken from patent US10947271B2, “Antibacterial agents” (THE UNIVERSITY OF QUEENSLAND, priority 2014, dated 2021).

Tests used:
Assay type in all cases: cell-based
Details in all cases: 24 h incubation, visual reading
[1] = test system: Streptococcus pneumoniae MDR ATCC 700677; assay: MIC assay, S. pneumoniae MDR ATCC 700677
Experimental: (§1) Antimicrobial activity of compounds was tested against a number of bacterial strains, including Staphylococcus aureus (MRSA ATCC 43300, GISA NRS17, VISA NRS1, MRSA clinical isolate, daptomycin resistant clinical isolate), Streptococcus pneumoniae (MDR ATCC 700677), Enterococcus faecalis (VanA clinical isolate) and Enterococcus faecium (MDR Van A ATCC 51559).
(§2) All compounds were prepared to 160 μg/ml solution in water from a stock solution of 1 mM concentration.
(§3) The compounds, along with standard antibiotics were serially diluted twofold across the wells of 96-well non-binding surface plates (NBS, Corning). Standards ranged from 64 μg/ml to 0.03 μg/ml and compounds from 8 μg/ml to 0.003 μg/ml with final volumes of 50 μL per well. Gram positive bacteria were cultured in Muller Hinton broth (MHB) (Bacto laboratories, Cat. no. 211443) at 37° C. overnight. A sample of each culture was then diluted 40-fold in fresh MHB broth and incubated at 37° C. for 2-3 hrs. The resultant mid-log phase cultures were diluted to the final concentration of 5×10e5 CFU/mL, then 50 μL was added to each well of the compound-containing 96-well plates. All the plates were covered and incubated at 37° C. for 24 h. MICs were the lowest concentration showing no visible growth.
(§4) MICs were determined visually at 24 hr incubation and the MIC was defined as the lowest concentration with which no growth was visible after incubation. Both MIC and MBC were determined by visual inspection only.

[2] = test system: Staphylococcus aureus MRSA ATCC 43300; assay: MIC assay, S. aureus MRSA ATCC 43300
Experimental: as §1, §2, §3, §4

[3] = test system: Enterococcus faecium MDR Van A ATCC 51559; assay: MIC assay, E. faecium MDR Van A ATCC 51559
Experimental: as §1, §2, §3, §4

SMILES | Minimum Inhibitory Concentration (MIC) S. pneumoniae ATCC 700677 [1] | Minimum Inhibitory Concentration (MIC) Staph. aureus ATCC43300 [2] | Minimum Inhibitory Concentration (MIC) E. faecium ATCC51559 [3]
CCCCCCCC(=O)NC(CCCCN)C(=O)NC(CCCCN)C(=O)NC(CCCCNC(=O)C1NC(=O)C2NC(=O)C(NC(=O)C3NC(=O)C(CC(N)=O)NC(=O)C(NC(=O)C(CC(C)C)NC)C(O)c4ccc(c(Cl)c4)Oc4cc3cc(c4OC3OC(CO)C(O)C(O)C3OC3CC(C)(N)C(O)C(C)O3)Oc3ccc(cc3Cl)C2O)c2ccc(O)c(c2)-c2c(O)cc(O)cc21)C(=O)NC (stereo not drawn) [MCC_000489] | xxx (xxx = 0.1-<1) | xx (xx = 1-4) | x (x = >4)
CCCCCCCC(=O)NCCCCC(NC(=O)CCCCCCC)C(=O)NC(CCCCN)C(=O)NC(CCCCNC(=O)C1NC(=O)C2NC(=O)C(NC(=O)C3NC(=O)C(CC(N)=O)NC(=O)C(NC(=O)C(CC(C)C)NC)C(O)c4ccc(c(Cl)c4)Oc4cc3cc(c4OC3OC(CO)C(O)C(O)C3OC3CC(C)(N)C(O)C(C)O3)Oc3ccc(cc3Cl)C2O)c2ccc(O)c(c2)-c2c(O)cc(O)cc21)C(=O)NC (stereo not drawn) [MCC_000490] | xxxxx (xxxxx = <0.01) | xxxx (xxxx = 0.01-<0.1) | x (x = >4)
CCCCCCCCC(=O)NC(CCCCN)C(=O)NC(CCCCN)C(=O)NC(CCCCNC(=O)C1NC(=O)C2NC(=O)C(NC(=O)C3NC(=O)C(CC(N)=O)NC(=O)C(NC(=O)C(CC(C)C)NC)C(O)c4ccc(c(Cl)c4)Oc4cc3cc(c4OC3OC(CO)C(O)C(O)C3OC3CC(C)(N)C(O)C(C)O3)Oc3ccc(cc3Cl)C2O)c2ccc(O)c(c2)-c2c(O)cc(O)cc21)C(=O)NC (stereo not drawn) [MCC_000491] | xxx (xxx = 0.1-<1) | xxx (xxx = 0.1-<1) | x (x = >4)
CCCCCCCCCC(=O)NC(CCCCN)C(=O)NC(CCCCN)C(=O)NC(CCCCNC(=O)C1NC(=O)C2NC(=O)C(NC(=O)C3NC(=O)C(CC(N)=O)NC(=O)C(NC(=O)C(CC(C)C)NC)C(O)c4ccc(c(Cl)c4)Oc4cc3cc(c4OC3OC(CO)C(O)C(O)C3OC3CC(C)(N)C(O)C(C)O3)Oc3ccc(cc3Cl)C2O)c2ccc(O)c(c2)-c2c(O)cc(O)cc21)C(=O)NC (stereo not drawn) [MCC_000492] | xxxxxx | xxxxx (xxxxx = <0.01) | x (x = >4)
CCCCCCCCCCCC(=O)NC(CCCCN)C(=O)NC(CCCCN)C(=O)NC(CCCCNC(=O)C1NC(=O)C2NC(=O)C(NC(=O)C3NC(=O)C(CC(N)=O)NC(=O)C(NC(=O)C(CC(C)C)NC)C(O)c4ccc(c(Cl)c4)Oc4cc3cc(c4OC3OC(CO)C(O)C(O)C3OC3CC(C)(N)C(O)C(C)O3)Oc3ccc(cc3Cl)C2O)c2ccc(O)c(c2)-c2c(O)cc(O)cc21)C(=O)NC (stereo not drawn) [MCC_000493] | xxxxx (xxxxx = <0.01) | xxxxx (xxxxx = <0.01) | xx (xx = 1-4)
CCCCCCCCCCCCC(=O)NC(CCCCN)C(=O)NC(CCCCN)C(=O)NC(CCCCNC(=O)C1NC(=O)C2NC(=O)C(NC(=O)C3NC(=O)C(CC(N)=O)NC(=O)C(NC(=O)C(CC(C)C)NC)C(O)c4ccc(c(Cl)c4)Oc4cc3cc(c4OC3OC(CO)C(O)C(O)C3OC3CC(C)(N)C(O)C(C)O3)Oc3ccc(cc3Cl)C2O)c2ccc(O)c(c2)-c2c(O)cc(O)cc21)C(=O)NC (stereo not drawn) [MCC_000494] | xxxxx (xxxxx = <0.01) | xxxxx (xxxxx = <0.01) | xx (xx = 1-4)
CCCCCCCCCCCCCCC(=O)NC(CCCCN)C(=O)NC(CCCCN)C(=O)NC(CCCCNC(=O)C1NC(=O)C2NC(=O)C(NC(=O)C3NC(=O)C(CC(N)=O)NC(=O)C(NC(=O)C(CC(C)C)NC)C(O)c4ccc(c(Cl)c4)Oc4cc3cc(c4OC3OC(CO)C(O)C(O)C3OC3CC(C)(N)C(O)C(C)O3)Oc3ccc(cc3Cl)C2O)c2ccc(O)c(c2)-c2c(O)cc(O)cc21)C(=O)NC (stereo not drawn) [MCC_000495] | xxxxx (xxxxx = <0.01) | xxxx (xxxx = 0.01-<0.1) | xxx (xxx = 0.1-<1)
CCCCCCC(CCCC)C(=O)NC(CCCCN)C(=O)NC(CCCCN)C(=O)NC(CCCCNC(=O)C1NC(=O)C2NC(=O)C(NC(=O)C3NC(=O)C(CC(N)=O)NC(=O)C(NC(=O)C(CC(C)C)NC)C(O)c4ccc(c(Cl)c4)Oc4cc3cc(c4OC3OC(CO)C(O)C(O)C3OC3CC(C)(N)C(O)C(C)O3)Oc3ccc(cc3Cl)C2O)c2ccc(O)c(c2)-c2c(O)cc(O)cc21)C(=O)NC (stereo not drawn) [MCC_000496] | xxx (xxx = 0.1-<1) | xxxx (xxxx = 0.01-<0.1) | x (x = >4)
CCCCCCC(CCCC)C(=O)NCCCCC(NC(=O)C(CCCC)CCCCCC)C(=O)NC(CCCCN)C(=O)NC(CCCCNC(=O)C1NC(=O)C2NC(=O)C(NC(=O)C3NC(=O)C(CC(N)=O)NC(=O)C(NC(=O)C(CC(C)C)NC)C(O)c4ccc(c(Cl)c4)Oc4cc3cc(c4OC3OC(CO)C(O)C(O)C3OC3CC(C)(N)C(O)C(C)O3)Oc3ccc(cc3Cl)C2O)c2ccc(O)c(c2)-c2c(O)cc(O)cc21)C(=O)NC (stereo not drawn) [MCC_000497] | xxx (xxx = 0.1-<1) | xxx (xxx = 0.1-<1) | xxx (xxx = 0.1-<1)
CCCCC=CCCCCCCCC(=O)NC(CCCCN)C(=O)NC(CCCCN)C(=O)NC(CCCCNC(=O)C1NC(=O)C2NC(=O)C(NC(=O)C3NC(=O)C(CC(N)=O)NC(=O)C(NC(=O)C(CC(C)C)NC)C(O)c4ccc(c(Cl)c4)Oc4cc3cc(c4OC3OC(CO)C(O)C(O)C3OC3CC(C)(N)C(O)C(C)O3)Oc3ccc(cc3Cl)C2O)c2ccc(O)c(c2)-c2c(O)cc(O)cc21)C(=O)NC (stereo not drawn) [MCC_000498] | xx (xx = 1-4) | xx (xx = 1-4) | x (x = >4)
CCCCCCc1ccc(C(=O)NC(CCCCN)C(=O)NC(CCCCN)C(=O)NC(CCCCNC(=O)C2NC(=O)C3NC(=O)C(NC(=O)C4NC(=O)C(CC(N)=O)NC(=O)C(NC(=O)C(CC(C)C)NC)C(O)c5ccc(c(Cl)c5)Oc5cc4cc(c5OC4OC(CO)C(O)C(O)C4OC4CC(C)(N)C(O)C(C)O4)Oc4ccc(cc4Cl)C3O)c3ccc(O)c(c3)-c3c(O)cc(O)cc32)C(=O)NC)cc1 (stereo not drawn) [MCC_000499] | xxxx (xxxx = 0.01-<0.1) | xxxx (xxxx = 0.01-<0.1) | xx (xx = 1-4)
CCCCCCCc1ccc(C(=O)NC(CCCCN)C(=O)NC(CCCCN)C(=O)NC(CCCCNC(=O)C2NC(=O)C3NC(=O)C(NC(=O)C4NC(=O)C(CC(N)=O)NC(=O)C(NC(=O)C(CC(C)C)NC)C(O)c5ccc(c(Cl)c5)Oc5cc4cc(c5OC4OC(CO)C(O)C(O)C4OC4CC(C)(N)C(O)C(C)O4)Oc4ccc(cc4Cl)C3O)c3ccc(O)c(c3)-c3c(O)cc(O)cc32)C(=O)NC)cc1 (stereo not drawn) [MCC_000500] | xxxxx (xxxxx = <0.01) | xxxxx (xxxxx = <0.01) | xx (xx = 1-4)
CCCCCOc1ccc(C(=O)NC(CCCCN)C(=O)NC(CCCCN)C(=O)NC(CCCCNC(=O)C2NC(=O)C3NC(=O)C(NC(=O)C4NC(=O)C(CC(N)=O)NC(=O)C(NC(=O)C(CC(C)C)NC)C(O)c5ccc(c(Cl)c5)Oc5cc4cc(c5OC4OC(CO)C(O)C(O)C4OC4CC(C)(N)C(O)C(C)O4)Oc4ccc(cc4Cl)C3O)c3ccc(O)c(c3)-c3c(O)cc(O)cc32)C(=O)NC)cc1 (stereo not drawn) [MCC_000501] | xxxxx (xxxxx = <0.01) | xxxx (xxxx = 0.01-<0.1) | x (x = >4)
CCCCCOc1ccc(C(=O)NCCCCC(NC(=O)c2ccc(OCCCCC)cc2)C(=O)NC(CCCCN)C(=O)NC(CCCCNC(=O)C2NC(=O)C3NC(=O)C(NC(=O)C4NC(=O)C(CC(N)=O)NC(=O)C(NC(=O)C(CC(C)C)NC)C(O)c5ccc(c(Cl)c5)Oc5cc4cc(c5OC4OC(CO)C(O)C(O)C4OC4CC(C)(N)C(O)C(C)O4)Oc4ccc(cc4Cl)C3O)c3ccc(O)c(c3)-c3c(O)cc(O)cc32)C(=O)NC)cc1 (stereo not drawn) [MCC_000502] | xxxxx (xxxxx = <0.01) | xxxxx (xxxxx = <0.01) | xxx (xxx = 0.1-<1)
